Biological target: T1, PepS (Shewanella sp. E525-6, UniProt A0A140CQI1)
T1 construct: mature N-terminus L17-T-A-C-N21 (16-residue signal peptide removed)
T1 sequence (A0A140CQI1 17-694): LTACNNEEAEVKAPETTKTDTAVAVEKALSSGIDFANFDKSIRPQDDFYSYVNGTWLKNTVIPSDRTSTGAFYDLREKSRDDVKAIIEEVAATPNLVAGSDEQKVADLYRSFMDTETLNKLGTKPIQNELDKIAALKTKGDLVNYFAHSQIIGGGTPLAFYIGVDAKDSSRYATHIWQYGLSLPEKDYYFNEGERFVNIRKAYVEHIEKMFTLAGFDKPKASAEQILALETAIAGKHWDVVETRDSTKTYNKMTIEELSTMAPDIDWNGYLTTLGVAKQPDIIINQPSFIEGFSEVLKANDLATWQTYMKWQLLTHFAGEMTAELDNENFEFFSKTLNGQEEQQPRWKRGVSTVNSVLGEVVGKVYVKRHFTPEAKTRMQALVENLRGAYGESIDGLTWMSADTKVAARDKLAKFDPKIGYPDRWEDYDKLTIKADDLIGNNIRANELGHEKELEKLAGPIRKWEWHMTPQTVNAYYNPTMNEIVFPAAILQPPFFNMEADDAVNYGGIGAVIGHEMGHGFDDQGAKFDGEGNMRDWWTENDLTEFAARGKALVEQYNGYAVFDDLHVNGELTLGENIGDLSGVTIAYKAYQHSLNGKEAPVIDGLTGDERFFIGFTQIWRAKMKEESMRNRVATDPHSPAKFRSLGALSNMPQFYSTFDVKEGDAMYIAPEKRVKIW
Test: residual peptidase activity, HPLC of product FSP
Type: biochemical
Excerpt: residual peptidase activity, HPLC of product FSP on PepS

CC(C)C[C@H](NP(=O)(O)O[C@@H]1O[C@@H](C)[C@H](O)[C@@H](O)[C@H]1O)C(=O)N[C@@H](Cc1c[nH]c2ccccc12)C(=O)O [Phosphoramidon]
remaining activity at 10 µM: 4.3 ± 0.4%

— paper PMC4701951, “Characterization of a New M13 Metallopeptidase from Deep-Sea Shewanella sp. E525-6 and Mechanistic Insight into Its Catalysis” (Frontiers in Microbiology, 2016)
